Reference: patent publication US8415386B2, “Azolopyrrolone melanin concentrating hormone receptor-1 antagonists” (Bristol-Myers Squibb Company, priority 2008, dated 2013)
Structures can show the parent of a compound that is named as a salt.

Each compound was assayed against T1, mutated (E4Q, A5T) hMCHR1 receptor (Homo sapiens, UniProt Q99705, A5T/E4Q) (assay: Radioligand Binding Assay for Assessment of MCHR1 Activity). Settings: membranes from stably transfected HEK-293 cells; competition with [Phe13,[125I]Tyr19]-MCH.
T1 construct: expressed in transfected cells; host or cells: HEK-293 (stably transfected), membranes
T1 sequence (Q99705 whole entry E4Q/A5T): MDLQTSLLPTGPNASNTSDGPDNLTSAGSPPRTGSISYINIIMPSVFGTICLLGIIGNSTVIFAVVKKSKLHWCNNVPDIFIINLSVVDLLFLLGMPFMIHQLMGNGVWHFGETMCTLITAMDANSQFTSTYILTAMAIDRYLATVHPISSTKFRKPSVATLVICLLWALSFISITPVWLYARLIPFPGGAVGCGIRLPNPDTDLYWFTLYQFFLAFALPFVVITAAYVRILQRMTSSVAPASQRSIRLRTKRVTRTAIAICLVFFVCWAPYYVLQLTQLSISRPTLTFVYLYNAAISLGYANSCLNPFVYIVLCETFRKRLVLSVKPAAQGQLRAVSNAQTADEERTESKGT
Procedure: Radioligand Binding Assay for Assessment of MCHR1 Activity
Membranes from stably transfected HEK-293 cells expressing a mutated (E4Q, A5T) hMCHR1 receptor were prepared by dounce homogenization and differential centrifugation. Binding experiments were carried out with 0.5-1.0 ug of membrane protein incubated in a total of 0.2 ml in 25 mM HEPES (pH 7.4) with 10 mM MgCl2, 2 mM EGTA, and 0.1% BSA (Binding Buffer) for 90 min. For competition binding assays, reactions were carried out in the presence of with 0.06-0.1 nM [Phe^13, [^125I]Tyr^19]-MCH and increasing concentrations of unlabeled test molecules. Reactions were terminated by rapid vacuum filtration over 96 well-GFC UNIFILTER® plates pre-coated with 0.075 ml binding buffer containing 1% BSA, and washed 3 times with 0.4 ml of Phospho-buffered Saline (pH 7.4) containing 0.01% TX-100. Filters were dried, 0.05 ml microscint 20 was added to each well and radioactivity was subsequently quantified by scintillation counting on a TOPCOUNT® microplate scintillation counter (Packard). Inhibitory constants were determined by nonlinear least squares analysis using a four parameter logistic equation.

SMILES | Ki [nM]
COc1cc(N2Cc3nn(-c4ccc(Cl)cc4)cc3C2=O)ccc1OCC(C)OS(C)(=O)=O (centres unmarked) [Example 4, 1-(4-(2-(4-Chlorophenyl)-4-oxopyrrolo[3,4-c]pyrazol-5(2H,4H,6H)-yl)-2-methoxyphenoxy)propan-2-yl methanesulfonate] | 41.1
COc1cc(N2Cc3nn(-c4ccc(Cl)cc4)cc3C2=O)ccc1OCC(C)(C)O [Example 3, 2-(4-Chlorophenyl)-5-(4-(2-hydroxy-2-methylpropoxy)-3-methoxyphenyl)-5,6-dihydropyrrolo[3,4-c]pyrazol-4(2H)-one] | 106
CN[C@H]1CCN(c2ncc(N3Cc4cn(-c5ccc(Cl)cc5)nc4C3=O)cn2)C1 [Example 47, (S)-2-(4-Chlorophenyl)-5-(2-(3-(methylamino)pyrrolidin-1-yl)pyrimidin-5-yl)-4,5-dihydropyrrolo[3,4-c]pyrazol-6(2H)-one] | 32.7
CN[C@H]1CCN(c2ccc(N3Cc4cn(-c5ccc(Cl)cc5)nc4C3=O)cn2)C1 [Example 20, (S)-2-(4-Chlorophenyl)-5-(6-(3-(methylamino)pyrrolidin-1-yl)pyridin-3-yl)-4,5-dihydropyrrolo[3,4-c]pyrazol-6(2H)-one, 2 HCl] | 0.9
CC(C)(C)NC1CCN(c2ccc(N3Cc4cn(-c5ccc(Cl)cc5)nc4C3=O)cn2)C1 (centres unmarked) [Example 24, 5-(6-(3-(tert-Butylamino)pyrrolidin-1-yl)pyridin-3-yl)-2-(4-chlorophenyl)-4,5-dihydropyrrolo[3,4-c]pyrazol-6(2H)-one] | 2.7
CN(C)[C@@H]1CCN(c2ccc(N3Cc4cn(-c5ccc(Cl)cc5)nc4C3=O)cn2)C1 [Example 18, HCl] | 0.7
COc1cc(N2Cc3nn(-c4ccc(Cl)cc4)nc3C2=O)ccc1OCCN1CCCC1 [Example 12, 2-(4-Chlorophenyl)-5-(3-methoxy-4-(2-(pyrrolidin-1-yl)ethoxy)phenyl)-5,6-dihydropyrrolo[3,4-d][1,2,3]triazol-4(2H)-one] | 2.3
CN(C(=O)OC(C)(C)C)C1CCN(c2ccc(N3Cc4cn(-c5ccc(Cl)cc5)nc4C3=O)cn2)C1 (centres unmarked) [Example 16G, tert-Butyl 1-(5-(2-(4-chlorophenyl)-6-oxopyrrolo[3,4-e]pyrazol-5(2H,4H,6H)-yl)pyridin-2-yl)pyrrolidin-3-yl(methyl)carbamate] | 3.6
COc1cc(N2Cc3cn(-c4ccc(Cl)cc4)nc3C2=O)ccc1OC[C@H](O)C1CC1 [Example 9, (R)-2-(4-Chlorophenyl)-5-(4-(2-cyclopropyl-2-hydroxyethoxy)-3-methoxyphenyl)-4,5-dihydropyrrolo[3,4-c]pyrazol-6(2H)-one] | 8.6
O=C1c2nn(-c3ccc(Cl)cc3)cc2CN1c1ccc(N2CCC(N3CCCC3)CC2)nc1 [Example 29, 2-(4-Chlorophenyl)-5-(6-(4-(pyrrolidin-1-yl)piperidin-1-yl)pyridin-3-yl)-4,5-dihydropyrrolo[3,4-c]pyrazol-6(2H)-one] | 17.1
COc1cc(N2Cc3cn(-c4ccc(Cl)cc4)nc3C2=O)ccc1OCC(C)OS(C)(=O)=O (centres unmarked) [Example 5, 1-(4-(2-(4-Chlorophenyl)-6-oxopyrrolo[3,4-c]pyrazol-5(2H,4H,6H)-yl)-2-methoxyphenoxy)propan-2-yl methanesulfonate] | 13.7
COc1cc(N2Cc3nn(-c4ccc(Cl)cc4)nc3C2=O)ccc1OCC(C)(C)O [Example 13, 2-(4-Chlorophenyl)-5-(4-(2-hydroxy-2-methylpropoxy)-3-methoxyphenyl)-5,6-dihydropyrrolo[3,4-d][1,2,3]triazol-4(2H)-one] | 34.3
CN(C)[C@H]1CCN(c2ccc(N3Cc4cn(-c5ccc(Cl)cc5)nc4C3=O)cn2)C1 [Example 17, (S)-2-(4-Chlorophenyl)-5-(6-(3-(dimethylamino)pyrrolidin-1-yl)pyridin-3-yl)-4,5-dihydropyrrolo[3,4-c]pyrazol-6(2H)-one, 2 HCl] | 0.9
O=C1c2nn(-c3ccc(Cl)cc3)cc2CN1c1ccc(N2CC[C@@H](O)C2)nc1 [Example 11, (R)-2-(4-Chlorophenyl)-5-(6-(3-hydroxypyrrolidin-1-yl)pyridin-3-yl)-4,5-dihydropyrrolo[3,4-c]pyrazol-6(2H)-one] | 81
COc1cc(N2Cc3cn(-c4ccc(Cl)cc4)nc3C2=O)ccc1OCC(C)O (centres unmarked) [Example 6, 2-(4-Chlorophenyl)-5-(4-(2-hydroxypropoxy)-3-methoxyphenyl)-4,5-dihydropyrrolo[3,4-c]pyrazol-6(2H)-one] | 13.2
CNC1CCN(c2ccc(N3Cc4cn(-c5ccc(Cl)cc5)nc4C3=O)cn2)C1 (centres unmarked) [Example 16, 2-(4-Chlorophenyl)-5-(6-(3-(methylamino)pyrrolidin-1-yl)pyridin-3-yl)-4,5-dihydropyrrolo[3,4-c]pyrazol-6(2H)-one, 2 TFA] | 2.5
COc1cc(N2Cc3nn(-c4ccc(Cl)cc4)cc3C2=O)ccc1OC[C@H](O)C1CC1 [Example 1, (R)-2-(4-Chlorophenyl)-5-(4-(2-cyclopropyl-2-hydroxyethoxy)-3-methoxyphenyl)-5,6-dihydropyrrolo[3,4-c]pyrazol-4(2H)-one] | 41.4
CN[C@@H]1CCN(c2ccc(N3Cc4cn(-c5ccc(Cl)cc5)nc4C3=O)cn2)C1 [Example 19, (R)-2-(4-Chlorophenyl)-5-(6-(3-(methylamino)pyrrolidin-1-yl)pyridin-3-yl)-4,5-dihydropyrrolo[3,4-c]pyrazol-6(2H)-one, 2 HCl] | 1.3
COc1cc(N2Cc3nn(-c4ccc(Cl)cc4)nc3C2=O)ccc1OCC(O)C1CC1 (centres unmarked) [Example 14, 2-(4-Chlorophenyl)-5-(4-(2-cyclopropyl-2-hydroxyethoxy)-3-methoxyphenyl)-5,6-dihydropyrrolo[3,4-d][1,2,3]triazol-4(2H)-one] | 113
CN(C(=O)OC(C)(C)C)[C@H]1CCN(c2ccc(N3Cc4cn(-c5ccc(Cl)cc5)nc4C3=O)cn2)C1 [Example 20A, (S)-tert-Butyl 1-(5-(2-(4-chlorophenyl)-6-oxopyrrolo[3,4-c]pyrazol-5(2H,4H,6H)-yl)pyridin-2-yl)pyrrolidin-3-yl(methyl)carbamate] | 784
COc1cc(N2Cc3nn(-c4ccc(Cl)cc4)cc3C2=O)ccc1OCC(C)O (centres unmarked) [Example 2, 2-(4-Chlorophenyl)-5-(4-(2-hydroxypropoxy)-3-methoxyphenyl)-5,6-dihydropyrrolo[3,4-c]pyrazol-4(2H)-one] | 334
COc1cc(N2Cc3cn(-c4ccc(Cl)cc4)nc3C2=O)ccc1OCC(C)(C)O [Example 8, 2-(4-Chlorophenyl)-5-(4-(2-hydroxy-2-methylpropoxy)-3-methoxyphenyl)-4,5-dihydropyrrolo[3,4-c]pyrazol-6(2H)-one] | 12.5
CN[C@H]1CCN(c2ccc(N3Cc4cn(-c5ccc(Cl)cc5)nc4C3=O)cc2OC)C1 [Example 42, (S)-2-(4-Chlorophenyl)-5-(3-methoxy-4-(3-(methylamino)pyrrolidin-1-yl)phenyl)-4,5-dihydropyrrolo[3,4-c]pyrazol-6(2H)-one, 2 TFA] | 0.5
COc1cc(N2Cc3cn(-c4ccc(Cl)cc4)nc3C2=O)ccc1OCCN1CCCC1 [Example 15, 2-(4-Chlorophenyl)-5-(3-methoxy-4-(2-(pyrrolidin-1-yl)ethoxy)phenyl)-4,5-dihydropyrrolo[3,4-c]pyrazol-6(2H)-one, TFA] | 0.7
COc1ccc(N2Cc3cn(-c4ccc(Cl)cc4)nc3C2=O)cc1OC [Example 7, 2-(4-Chlorophenyl)-5-(3,4-dimethoxyphenyl)-4,5-dihydropyrrolo[3,4-c]pyrazol-6(2H)-one] | 49.4
COc1cc(N2Cc3cn(-c4ccc(Cl)cc4)nc3C2=O)ccc1OC[C@H](OC(=O)[C@@H](N)C(C)C)C1CC1 [Example 10, (S)-((R)-2-(4-(2-(4-Chlorophenyl)-6-oxopyrrolo[3,4-c]pyrazol-5(2H,4H,6H)-yl)-2-methoxyphenoxy)-1-cyclopropylethyl) 2-amino-3-methylbutanoate, TFA salt] | 2.7
O=C1c2nn(-c3ccc(Cl)cc3)cc2CN1c1ccc(N2CCC(N3CCCC3)C2)nc1 (centres unmarked) [Example 28, 5-(6-(1,3′-Bipyrrolidin-1′-yl)pyridin-3-yl)-2-(4-chlorophenyl)-4,5-dihydropyrrolo[3,4-c]pyrazol-6(2H)-one] | 0.9
CN(C(=O)OC(C)(C)C)[C@@H]1CCN(c2ccc(N3Cc4cn(-c5ccc(Cl)cc5)nc4C3=O)cn2)C1 [Example 19A, (R)-tort-Butyl 1-(5-(2-(4-chlorophenyl)-6-oxopyrrolo[3,4-c]pyrazol-5(2H,4H,6H)-yl)pyridin-2-yl)pyrrolidin-3-yl(methyl)carbamate] | 184
COc1cc(N2Cc3nn(-c4ccc(Cl)cc4)nc3C2=O)ccc1OCC(=O)C1CC1 [Example 14B, 2-(4-Chlorophenyl)-5-(4-(2-cyclopropyl-2-oxoethoxy)-3-methoxyphenyl)-5,6-dihydropyrrolo[3,4-d][1,2,3]triazol-4(2H)-one] | 304
